Experimental data taken from PubChem BioAssay (NCI).
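GI50 marks 50% less growth. TGI is the concentration that stops growth completely.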

Experiments:
Experiment in all cases: NCI tumour cell line growth inhibition, 384-well format
KM12 colon = system: KM12 colon
OVCAR-8 ovarian = system: OVCAR-8 ovarian
BT-549 breast = system: BT-549 breast
HCT-116 colon = system: HCT-116 colon
UACC-62 melanoma = system: UACC-62 melanoma
NCI-H522 lung = system: NCI-H522 lung
NCI-H460 NSCLC = system: NCI-H460 NSCLC
K-562 leukemia = system: K-562 leukemia
SF-295 CNS = system: SF-295 CNS
A498 renal = system: A498 renal
OVCAR-4 ovarian = system: OVCAR-4 ovarian
HL-60(TB) leukemia = system: HL-60(TB) leukemia
HCT-15 colon = system: HCT-15 colon
MCF7 breast = system: MCF7 breast
SK-MEL-2 melanoma = system: SK-MEL-2 melanoma
ACHN renal = system: ACHN renal
OVCAR-5 ovarian = system: OVCAR-5 ovarian
SNB-19 CNS = system: SNB-19 CNS
PC-3 prostate = system: PC-3 prostate
SW-620 colon = system: SW-620 colon
HOP-62 NSCLC = system: HOP-62 NSCLC
RPMI-8226 leukemia = system: RPMI-8226 leukemia
DU-145 prostate = system: DU-145 prostate
SK-MEL-28 melanoma = system: SK-MEL-28 melanoma
NCI-H226 lung = system: NCI-H226 lung
786-0 renal = system: 786-0 renal
NCI-H322M lung = system: NCI-H322M lung
SF-268 CNS = system: SF-268 CNS
TK-10 renal = system: TK-10 renal
SK-MEL-5 melanoma = system: SK-MEL-5 melanoma
UO-31 renal = system: UO-31 renal
M14 melanoma = system: M14 melanoma
COLO 205 colon = system: COLO 205 colon
CAKI-1 renal = system: CAKI-1 renal
SK-OV-3 ovarian = system: SK-OV-3 ovarian
HOP-92 NSCLC = system: HOP-92 NSCLC
IGROV1 ovarian = system: IGROV1 ovarian
SN12C renal = system: SN12C renal
OVCAR-3 ovarian = system: OVCAR-3 ovarian
MOLT-4 leukemia = system: MOLT-4 leukemia
NCI-H23 lung = system: NCI-H23 lung
LOX IMVI melanoma = system: LOX IMVI melanoma
SF-539 CNS = system: SF-539 CNS
SR leukemia = system: SR leukemia
MDA-MB-435 melanoma = system: MDA-MB-435 melanoma
HT29 colon = system: HT29 colon
MDA-MB-231 breast = system: MDA-MB-231 breast
UACC-257 melanoma = system: UACC-257 melanoma
MDA-MB-468 breast = system: MDA-MB-468 breast
NCI/ADR-RES ovarian = system: NCI/ADR-RES ovarian
A549 NSCLC = system: A549 NSCLC
RXF 393 renal = system: RXF 393 renal
CCRF-CEM leukemia = system: CCRF-CEM leukemia
U251 glioblastoma = system: U251 glioblastoma
HCC-2998 colon = system: HCC-2998 colon
MALME-3M melanoma = system: MALME-3M melanoma

Cc1c(-c2c(F)cc(C(N)=O)c3[nH]c4c(c23)CC[C@H](C(C)(C)O)C4)cccc1-n1c(=O)c2cccc(F)c2n(C)c1=O
GI50 (KM12 colon): 0.284 µM | TGI (KM12 colon): 1.54 µM | GI50 (OVCAR-8 ovarian): 4.62 µM | TGI (OVCAR-8 ovarian): 22.9 µM | GI50 (BT-549 breast): 5.1 µM | TGI (BT-549 breast): 15.7 µM | GI50 (HCT-116 colon): 3.14 µM | TGI (HCT-116 colon): 12.1 µM | GI50 (UACC-62 melanoma): 3.6 µM | TGI (UACC-62 melanoma): 15.7 µM | GI50 (NCI-H522 lung): 1.89 µM | TGI (NCI-H522 lung): 6.56 µM | GI50 (NCI-H460 NSCLC): 2.9 µM | TGI (NCI-H460 NSCLC): 13.1 µM | GI50 (K-562 leukemia): 4.66 µM | TGI (K-562 leukemia): > 100 µM | GI50 (SF-295 CNS): 3.42 µM | TGI (SF-295 CNS): 12 µM | GI50 (A498 renal): 3.25 µM | TGI (A498 renal): 9.41 µM | GI50 (OVCAR-4 ovarian): 2.8 µM | TGI (OVCAR-4 ovarian): 7.38 µM | GI50 (HL-60(TB) leukemia): 1.12 µM | TGI (HL-60(TB) leukemia): 2.34 µM | GI50 (HCT-15 colon): 3.7 µM | TGI (HCT-15 colon): 13.6 µM | GI50 (MCF7 breast): 1.29 µM | TGI (MCF7 breast): 3.56 µM | GI50 (SK-MEL-2 melanoma): 2.18 µM | TGI (SK-MEL-2 melanoma): 7.9 µM | GI50 (ACHN renal): 1.97 µM | TGI (ACHN renal): 5.73 µM | GI50 (OVCAR-5 ovarian): 2.56 µM | TGI (OVCAR-5 ovarian): 11.3 µM | GI50 (SNB-19 CNS): 9.94 µM | TGI (SNB-19 CNS): 24.5 µM | GI50 (PC-3 prostate): 3.85 µM | TGI (PC-3 prostate): 17 µM | GI50 (SW-620 colon): 2.94 µM | TGI (SW-620 colon): 13.5 µM | GI50 (HOP-62 NSCLC): 8.36 µM | TGI (HOP-62 NSCLC): 26.5 µM | GI50 (RPMI-8226 leukemia): 1.32 µM | TGI (RPMI-8226 leukemia): 2.7 µM | GI50 (DU-145 prostate): 4.85 µM | TGI (DU-145 prostate): 23 µM | GI50 (SK-MEL-28 melanoma): 2.87 µM | TGI (SK-MEL-28 melanoma): 13.8 µM | GI50 (NCI-H226 lung): 2.56 µM | TGI (NCI-H226 lung): 10.4 µM | GI50 ([…]-0 renal): 3.27 µM | TGI (786-0 renal): 14.5 µM | GI50 (NCI-H322M lung): 4.08 µM | TGI (NCI-H322M lung): 23.6 µM | GI50 (SF-268 CNS): 5.58 µM | TGI (SF-268 CNS): 21.4 µM | GI50 (TK-10 renal): 2.16 µM | TGI (TK-10 renal): 4.76 µM | GI50 (SK-MEL-5 melanoma): 4.31 µM | TGI (SK-MEL-5 melanoma): 14.1 µM | GI50 (UO-31 renal): 2 µM | TGI (UO-31 renal): 5.39 µM | GI50 (M14 melanoma): 2.2 µM | TGI (M14 melanoma): 10.1 µM | GI50 (COLO 205 colon): 1.61 µM | TGI (COLO 205 colon): 4.46 µM | GI50 (CAKI-1 renal): 2.21 µM | TGI (CAKI-1 renal): 5.72 µM | GI50 (SK-OV-3 ovarian): 2.26 µM | TGI (SK-OV-3 ovarian): 8.77 µM | GI50 (HOP-92 NSCLC): 1.45 µM | TGI (HOP-92 NSCLC): 4.8 µM | GI50 (IGROV1 ovarian): 3.17 µM | TGI (IGROV1 ovarian): 9.53 µM | GI50 (SN12C renal): 3.26 µM | TGI (SN12C renal): 13.1 µM | GI50 (OVCAR-3 ovarian): 2.54 µM | TGI (OVCAR-3 ovarian): 6.39 µM | GI50 (MOLT-4 leukemia): 1.53 µM | TGI (MOLT-4 leukemia): 2.93 µM | GI50 (NCI-H23 lung): 2.67 µM | TGI (NCI-H23 lung): 10.9 µM | GI50 (LOX IMVI melanoma): 5.98 µM | TGI (LOX IMVI melanoma): 16.2 µM | GI50 (SF-539 CNS): 8 µM | TGI (SF-539 CNS): 20.9 µM | GI50 (SR leukemia): 1.66 µM | TGI (SR leukemia): 3.04 µM | GI50 (MDA-MB-435 melanoma): 4.13 µM | TGI (MDA-MB-435 melanoma): 15.1 µM | GI50 (HT29 colon): 1.47 µM | TGI (HT29 colon): 11.8 µM | GI50 (MDA-MB-231 breast): 3.59 µM | TGI (MDA-MB-231 breast): 14.5 µM | GI50 (UACC-257 melanoma): 2.29 µM | TGI (UACC-257 melanoma): 10.7 µM | GI50 (MDA-MB-468 breast): 2.86 µM | TGI (MDA-MB-468 breast): 5.86 µM | GI50 (NCI/ADR-RES ovarian): 3.55 µM | TGI (NCI/ADR-RES ovarian): 13 µM | GI50 (A549 NSCLC): 2.43 µM | TGI (A549 NSCLC): 9.34 µM | GI50 (RXF 393 renal): 1.96 µM | TGI (RXF 393 renal): 4.07 µM | GI50 (CCRF-CEM leukemia): 3.33 µM | TGI (CCRF-CEM leukemia): 9.78 µM | GI50 (U251 glioblastoma): 5.78 µM | TGI (U251 glioblastoma): 19.8 µM | GI50 (HCC-2998 colon): 2.33 µM | TGI (HCC-2998 colon): 6.99 µM | GI50 (MALME-3M melanoma): 1.79 µM | TGI (MALME-3M melanoma): 6.95 µM
